Columns and labels:
[1] = system: HCT116; experiment: AC50 cell viability (CellTiter-Glo); higher = less potent; settings: 48 h
[2] = system: HCT116; experiment: efficacy (fitted maximal change in viability relative to DMSO control); higher = less cytotoxic (negative = loss of viability); settings: 48 h
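Throughout, for AC50 cell viability (CellTiter-Glo): HCT116 colorectal carcinoma cells screened at five concentrations per compound, luminescent viability scaled between DMSO wells and empty wells on each plate, curves fitted per compound.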
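Throughout, for efficacy (fitted maximal change in viability relative to DMSO control): Luminescence-based viability readout, five doses per compound, normalized against on-plate DMSO and empty-well controls, followed by dose-response curve fitting for every drug.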

SMILES | AC50 cell viability [1] | efficacy [2]
C=CC(=O)Nc1ccc2ncnc(Nc3cccc(Br)c3)c2c1 | 13.2 µM | -86.8%
c1ccc2c(-c3cnn4cc(-c5ccc(N6CCNCC6)cc5)cnc34)ccnc2c1 | 2.35 µM | -104%
C/C(=N\NC(=S)N1CCC1)c1ccccn1 | 0.0295 µM | -85.2%
CC(C)C1=N[N](C\2=C1C(=O)N\C(=N2)CC3=CC=C(OCCO)C=C3)C4=C(Cl)C=CC=C4Cl | 0.0295 µM | -63.1%
CC(C)C[C@H](NC(=O)c1cc2ccccc2s1)C(=O)N1CCN(C(=O)[C@H](CO)N[S+](=O)([O-])c2ccc(Cl)cc2Cl)CC1 | 16.6 µM | -76.8%
CC(C)N(CCC(=O)c1ccc2ccccc2c1)Cc1ccccc1 | 20.9 µM | -77.8%
CC(C)[C@@H](N(CCCN)C(=O)C1=CC=C(C)C=C1)C/2=C(\CC3=CC=CC=C3)C(=O)C4=C(O2)C=C(Cl)C=C4 | 8.33 µM | -34.7%
CC(C)[N]1C=C(C)C2=C1C=C(C=C2C(=O)NC\C3=C(C)\C=C(C)/NC3=O)C4=CC=C(N=C4)N5CCN(C)CC5 | 20.9 µM | -96.9%
CC(O)(C#Cc1ccc2c(c1)N(c1nc(N)ncc1Cl)CC2)c1nccs1 (stereo not drawn) | 16.6 µM | -76.1%
CC1(C)OC/2=C(\[C@H](NCC3=CC=CC=C3)[C@@H]1O)C(=O)C4=CC=CC=C4C2=O | 2.95 µM | -96.8%
Cc1[nH]c(/C=C2\C(=O)Nc3ccc([S+](=O)([O-])Cc4c(Cl)cccc4Cl)cc32)c(C)c1C(=O)N1CCC[C@@H]1CN1CCCC1 | 7.42 µM | -92%
Cc1cc(-c2nc3cc(F)ccc3s2)ccc1NC(=O)[C@@H](N)CCCCN | 7.42 µM | -93.6%
Cc1ccc(-n2c(C)cc(-c3nnc4n3CCCCC4)c2C)cc1 | 20.9 µM | -47.3%
Cc1ccc2nc(NCCN)c3ncc(C)n3c2c1 | 2.35 µM | -78.2%
Cc1cccc(-c2n[nH]cc2-c2ccc(F)c(-c3cnn(CCO)c3)c2)n1 | 26.3 µM | -71.1%
Cc1n[nH]c2ccc(-c3cncc(OC[C@@H](N)Cc4ccccc4)c3)cc12 | 0.59 µM | -69.5%
CCc1cc(-c2n[nH]c(C)c2-c2ccc3c(c2)OCCO3)c(O)cc1O | 7.42 µM | -87%
CCc1ccc(N(CC(C)C)[S+](=O)([O-])c2ccc(OCC3CCOCC3)c(CO)c2)cc1 | 23.5 µM | -83.5%
CCN1C(=O)N\2CC3=CC(=CC(=C3[C@@H](C)\C=C2C14CCN(CC4)CC5=CC(=CC(=C5)C)C)OC)OC | 23.5 µM | -91.8%
CCOC\1=C(/C(=O)NC2=CC=C(OC3=C(Cl)C(=NC=C3)N)C(=C2)F)C(=O)N(\C=C1)C4=CC=C(F)C=C4 | 18.6 µM | -67.3%
CC[C@@H]1[C@H](F)C(=O)N[C@@H]1COc1nccc2cc(C(N)=O)c(OC)cc12 | 13.2 µM | -66.9%
CCn1cc(-c2ccnc3[nH]c(-c4cccc(CN(C)C)c4)cc23)c(-c2ccc(NC(=O)N(C)C)cc2)n1 | 5.25 µM | -101%

SMILES | AC50 cell viability [1] | efficacy [2]
CN(C)Cc1ccc(-c2nc3cccc4c3n2CCNC4=O)cc1 | 5.9 µM | -65.6%
Cc1nc(Nc2n[nH]c3c2CN(C(=O)N[C@H](CN(C)C)c2ccccc2)C3(C)C)c2sccc2n1 | 0.0186 µM | -64.7%
Cc1cc(CN2CCN(c3c(Br)cnc4[nH]c(-c5ccc(N6CCN(C)CC6)cc5)nc34)CC2)no1 | 5.25 µM | -119%
Cc1cnc(Nc2ccc(N3CCN(C)CC3)cc2)nc1Nc1cccc([S+](=O)([O-])NC(C)(C)C)c1 | 1.86 µM | -89.5%
CN1CCN([C@H]2CC[C@H](n3cc(-c4ccc(Oc5ccccc5)cc4)c4c(N)ncnc43)CC2)CC1 | 7.42 µM | -110%
CNC(=O)c1ccc2c(c1)NC(=O)/C2=C(\Nc1cccc(CN(C)C)c1)c1ccccc1 | 18.6 µM | -93.1%
CNCCN(C)Cc1c[nH]nc1-c1ccc(O[C@H]2C[C@H](OCCC3CCOCC3)C2)cc1 | 18.6 µM | -52%
CN[S+]([O-])(=O)NC1=NC=CC(=C1F)CC/2=C(C)/C3=CC=C(OC4=NC=CC=N4)C=C3OC2=O | 1.66 µM | -43.7%
COC1=CC(=C2C(=O)N(COC/3=C/C(=O)N4\C=C/C=C(OCCN5CCCCC5)\C4=N3)[S+]([O-])(=O)C2=C1)C(C)C | 20.9 µM | -84.2%
COc1cccc(Nc2ncnn3ccc(CN4CC[C@@H](N)[C@H](O)C4)c23)c1 | 18.6 µM | -71.1%
COc1cc(-c2nn(C3CCC(N4CCN(C(C)=O)CC4)CC3)c3ncnc(N)c23)ccc1NC(=O)c1cc2ccccc2n1C (stereo not drawn) | 10.5 µM | -90.5%
COc1cc(Nc2cnc(C#N)c(O[C@H](C)CN(C)C)n2)ncc1-c1cnn(C)c1 | 11.8 µM | -121%
COc1ccc(-c2oc3ncnc(N)c3c2-c2ccc(NC(=O)Nc3cc(C(F)(F)F)ccc3F)cc2)cc1 | 4.68 µM | -70.5%
COc1ccc(Cn2ccc3ccc(C(=O)NO)cc32)cc1 | 16.6 µM | -71.9%
COc1ccc(Oc2cc(NCCC(F)(F)F)c3ncc(-c4ccc(C(=O)NC5CC5)c(C)c4)n3n2)c(F)c1F | 0.372 µM | -56.8%
C[C@@H](Oc1ccc2[nH]nc(/C=C/c3cnn(CCO)c3)c2c1)c1c(Cl)cncc1Cl | 0.661 µM | -79.4%
C[C@@H]1COCCN1c1cc(-c2ccnn2C)c2ccnc(-c3ccn[nH]3)c2n1 | 0.525 µM | -70.3%
C[C@@H](C(=O)Nc1ccc(Cl)cc1)[C@H]1CC[C@@H](c2ccnc3ccc(F)cc32)CC1 | 18.6 µM | -47.3%
C[C@H]1CN(C[C@@H](C)O1)CC(=O)NC2=CC=C3SC4=C(CC3=C2)C=CC=C4\C5=C\C(=O)\C=C(/O5)N6CCOCC6 | 5.9 µM | -51.9%
C[N]1C=C(C=N1)C2=CC=C3N=CC\4=C(N(C(=O)\C=C4)C5=CC6=C(CCN6C(=O)C=C)C=C5)C3=C2 | 0.512 µM | -78.5%
Cn1cc(-c2ccc(F)c(C(F)(F)F)c2)nc1C1CCN(c2ncnc3[nH]ncc23)CC1 | 16.6 µM | -40.4%
Cn1ncc(Cl)c1-c1cc(C(=O)N[C@H](CN)Cc2cccc(F)c2)sc1Cl | 14.8 µM | -103%

SMILES | AC50 cell viability [1] | efficacy [2]
Cc1nnn(C)c1-c1cnc2c3ccc(C(C)(C)O)cc3n([C@H](c3ccccc3)C3CCOCC3)c2c1 | 0.0186 µM | -82.9%
FC(F)(F)C1=CC=C2C(SCCCCCO\C3=C\O\C(CN4CCOCC4)=C/C3=O)=CC=NC2=C1 | 18.6 µM | -67.7%
O=C(Nc1cccnn1)N1CCC(=Cc2cccc(Oc3ccc(C(F)(F)F)cn3)c2)CC1 | 14.8 µM | -72.6%
FC1=CC2=C3[N](CCN(CC3=C1)C(=O)N4CCCCC4)C=C2C/5=C(C(=O)NC5=O)\C6=CN=C7C=CC=C[N]67 | 11.8 µM | -108%
NC(=O)c1cccc2nc(-c3ccc([C@H]4CCCN4)cc3F)[nH]c12 | 10.5 µM | -67.3%
NC(=O)c1ccccc1Nc1ccnc(Nc2cccc(O)c2)n1 | 5.9 µM | -95.9%
Nc1nccc(-c2c(-c3ccc(F)cc3)ncn2C2CCN(Cc3ccon3)CC2)n1 | 13.2 µM | -56.5%
NCC1CCN(c2nccc(-c3ccc4ccccc4c3)n2)CC1 | 14.8 µM | -126%
NC[C@@](O)(c1ccc(Cl)cc1)c1ccc(-c2cn[nH]c2)cc1 | 7.42 µM | -109%
N[S+]([O-])(=O)C1=CC=C(NC/2=C/C(=O)C3=CC=CC=C3C2=O)C=C1 | 10.5 µM | -81.9%
O=C(NCCCNc1nc(Nc2ccc(N3CCOCC3)cc2)ncc1C1CC1)C1CCC1 | 5.9 µM | -84.5%
Oc1ccc(-c2nc(-c3ccncc3)c(-c3ccc(F)cc3)[nH]2)cc1 | 23.5 µM | -80%
OCCC#Cc1nc(-c2ccc(F)cc2)c(-c2ccncc2)n1CCCc1ccccc1 | 23.5 µM | -64.2%
NC(CSC(c1ccccc1)(c1ccccc1)c1ccccc1)C(=O)O (stereo in doubt) [S-Trityl-L-cysteine] | 23.5 µM | -53.6%
Nc1nc(F)nc2c1ncn2[C@@H]1O[C@H](CO)[C@@H](O)[C@@H]1O [2-Fluoroadenosine] | 9.34 µM | -57.1%
COc1cc2c(cc1O)CC[C@@H]1[C@@H]2CC[C@]2(C)[C@@H](O)CC[C@@H]12 [2-Methoxyestradiol (2-MeOE2)] | 2.35 µM | -63.9%
NC1=NC=CC2=C1N=C[N]2[C@@H]3\C=C(CO)/[C@@H](O)[C@H]3O [3-Deazaneplanocin A] | 0.59 µM | -55.4%
Cn1cc(-c2ccc([S+](=O)([O-])n3ccc(/C=C/C(=O)Nc4ccccc4N)c3)cc2)cn1 [4SC-202] | 1.48 µM | -76.5%
NC/1=N/C(=O)N(/C=N1)[C@@H]2O[C@H](CO)[C@@H](O)[C@H]2O [5-Azacitidine] | 5.9 µM | -82.6%
CC(=O)O/N=C1/C(=C2\C(=O)Nc3cc(Br)ccc32)Nc2ccccc21 [6-Bromoindirubin-3'-acetoxime] | 10.5 µM | -92.3%

— the supplement of paper PMC10290057
